System: squamous head and neck cancer with HRAS mutations
Assay: Phase II study of tipifarnib in subjects with HRAS mutant tumors (HNSCC cohort)
Type: in vivo, human
Protocol: A Phase II study was performed that investigated the antitumor activity, in terms of objective response rate, of tipifarnib in subjects with locally advanced, unresectable or metastatic, relapsed and/or refractory tumors that carry HRAS mutations and for whom there is no curative therapy available. Subjects were men and women over 18 years of age.
Inclusion criteria of the study were as follows: histologically or cytologically confirmed diagnosis of thyroid cancer (cohort 1) or squamous head and neck cancer (cohort 2) for which there is no curative therapy available; tumor that carries a missense HRAS mutation; subject consents to provide at least 10 unstained tumor slides for retrospective testing of HRAS gene tumor status; subject has measurable disease according to RECIST v1.1 and has relapsed or is refractory to prior therapy; at least 2 weeks since the last systemic therapy or radiotherapy regimen prior to enrolment; ECOG PS 0 or 1; acceptable liver function; acceptable renal function; and acceptable hematologic status.
Exclusion criteria of the study were as follows: prior treatment with an FTase inhibitor; history of relevant coronary heart disease or myocardial infarction within last 3 years, NYHA Grade III or greater congestive heart failure, cerebro-vascular attack within the prior year, or serious cardiac arrhythmia requiring medication except atrial fibrillation; known uncontrolled brain, leptomeningeal or epidural metastases (unless treated and well controlled for at least 4 weeks prior to Cycle 1 Day 1); controlled brain metastases that require continuous high dose corticosteroid use within 4 weeks of Day 1; non-tolerable>Grade 2 neuropathy or evidence of unstable neurological symptoms within 4 weeks first dose; major surgery, other than diagnostic surgery, within 4 weeks prior to first dose, without complete recovery; active, uncontrolled bacterial, viral, or fungal infections, requiring systemic therapy; or known infection with HIV, or an active infection with hepatitis B or hepatitis C.
The study comprised 36 participants and subjects were enrolled into two nonrandomized cohorts as follows: Cohort 1 was comprised of patients with malignant thyroid tumors with HRAS mutations; Cohort 2 was comprised of patients with squamous head and neck cancer with HRAS mutations. Patients received tipifarnib at a starting dose of 600-900 mg orally twice daily on days 1-7 and 15-21 of 28-day cycles.
The primary outcome measurement of the study was objective response rate. Additionally, progression-free survival, duration of response, and the number of subjects with adverse events and serious adverse events were also recorded as secondary outcome measures. Adverse events and serious adverse events were graded according to the NCI-CTCAE (Version 4.03).
Upon meeting the primary objective (objective response rate), the study was amended to continue enrollment of HNSCC patients (Cohort 2) in addition to patients with other SCCs (Cohort 3). These patients had tumors carrying high HRASm variant allele frequency (VAF >35% or if baseline serum albumin is >3.5 g/dL)

[1] = of the 15 HNSCC patients meeting HRASm VAF criteria

`Cn1cncc1[C@@](N)(c1ccc(Cl)cc1)c1ccc2c(c1)c(-c1cccc(Cl)c1)cc(=O)n2C` [tipifarnib] was tested, and the overall response rate (15 HNSCC patients meeting HRASm VAF criteria, starting dose 600-900 mg orally twice daily on days 1-7 and 15-21 of 28-day cycles) was 53%, the “median progression-free survival (PFS), patients experiencing SD” value (95% CI 1.6 to 5.4 months) was 4.5 months and the “median progression-free survival (PFS), patients experiencing a PR” value (95% CI 5.3 to 19.5 months) was 19 months. For the same compound, the “overall median progression-free survival (PFS)” value (N=15, 95% CI 4.5 to 19.5 months) was 5.4 months, the “patients with at least 1 treatment-emergent adverse event (TEAE)” value (graded according to NCI-CTCAE Version 4.03) was “All patients” and the “most frequently observed drug-related Grade >3 TEAEs” value (occurring in ≥10% patients) was “blood and lymphatic system disorders, gastrointestinal disorders, and renal disorders”. The “confirmed partial responses (PR), number of patients” value [1] was 8 and the “stable disease (SD), number of patients” value [1] was 5.

Source: patent US20220071941A1, “THERAPIES FOR SQUAMOUS CELL CARCINOMAS” (Kura Oncology, Inc., priority 2018, published 2022)
